In PubChem BioAssay AID1259411 (Chemical Carcinogenesis Research Information System (CCRIS), 2018):
Active and inactive are the calls of the source. The rule behind the calls is not given here.

System: rodent carcinogenicity bioassays, tumor incidence
Assay: CCRIS carcinogenicity studies
Method in brief: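 NCI-built, expert-reviewed records of carcinogenicity and related test outcomes (mutagenicity, tumor promotion/inhibition) compiled from published and report sources, historical span 1985-2011, not updated.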

In the case of `CCCCCN(C)N=O`, the carcinogen call (Species: HAMSTER, Strain/Sex: SYRIAN/FEMALE, Route: GAVAGE, Dose: 0, 5.6 MG/KG 1/WK FOR 23-30 WK (TOTAL DOSE: 0; 1.1 MMOL) (STUDY DURATION: LIFETIME), Dose: 0, 5.6 MG/KG 1/WK FOR 23-30 WK (TOTAL DOSE: 0; 1.1 MMOL) (STUDY DURATION: LIFETIME), Tumor Site: Type of Lesion: LUNG: ALVEOLAR/BRONCHIAL ADENOMA, NASAL MUCOSA: CARCINOMA, ADENOMA, FORESTOMACH: SQUAMOUS CELL CARCINOMA, SQUAMOUS CELL, Tumor Site: Type of Lesion: LUNG: ALVEOLAR/BRONCHIAL ADENOMA, NASAL MUCOSA: CARCINOMA, ADENOMA, FORESTOMACH: SQUAMOUS CELL CARCINOMA, SQUAMOUS CELL) was “active; positive”, the carcinogen call (Species: HAMSTER, Strain/Sex: SYRIAN/MALE,FEMALE, Route: INTRAPERITONEAL, Dose: 0, 3, 6 MG/KG ONCE ON DAYS 1 AND 3 OF AGE, RESPECTIVELY (STUDY DURATION: >75 WK), Dose: 0, 3, 6 MG/KG ONCE ON DAYS 1 AND 3 OF AGE, RESPECTIVELY (STUDY DURATION: >75 WK)) was “inactive; negative” and the carcinogen call (Species: HAMSTER, Strain/Sex: SYRIAN/MALE,FEMALE, Route: INTRAPERITONEAL, Dose: 0, 3 MG/KG ONCE TO NEWBORN ANIMALS (STUDY DURATION: LIFETIME)) was “inactive; negative”. The carcinogen call (Species: HAMSTER, Strain/Sex: SYRIAN/MALE,FEMALE, Route: INTRAPERITONEAL, Dose: 0, 6 MG/KG ONCE TO 3 D-OLD ANIMALS (STUDY DURATION: LIFETIME)) was “inactive; negative”, the carcinogen call (Species: HAMSTER, Strain/Sex: SYRIAN/MALE,FEMALE, Route: INTRAPERITONEAL, Dose: 0, 70-100 MG/KG ONCE TO ADULT ANIMALS (STUDY DURATION: LIFETIME), Tumor Site: Type of Lesion: ESOPHAGUS: PAPILLOMA OR CARCINOMA) was “active; positive” and the carcinogen call (Species: HAMSTER, Strain/Sex: SYRIAN/MALE,FEMALE, Route: INTRAPERITONEAL, Dose: 0, 70 MG/KG (3 MALE HAMSTERS), 100 MG/KG (11 FEMALE HAMSTERS) ONCE AT 46-49 DAYS OF AGE (STUDY DURATION: >43 WK), Dose: 0, 70 MG/KG (3 MALE HAMSTERS), 100 MG/KG (11 FEMALE HAMSTERS) ONCE AT 46-49 DAYS OF AGE (STUDY DURATION: >43 WK)) was “inactive; negative”. The carcinogen call (Species: HAMSTER, Strain/Sex: SYRIAN/MALE,FEMALE, Route: INTRAPERITONEAL, Dose: 0, 75 MG/KG 1/WK FOR 6 WK BEGINNING AT 38 DAYS OF AGE (STUDY DURATION: >33 WK), Tumor Site: Type of Lesion: FORESTOMACH: PAPILLOMA, LUNG: ADENOMA, NASAL CAVITY: TUMOR, Tumor Site: Type of Lesion: FORESTOMACH: PAPILLOMA, LUNG: ADENOMA, NASAL CAVITY: TUMOR) was “active; positive”, the carcinogen call (Species: HAMSTER, Strain/Sex: SYRIAN/MALE,FEMALE, Route: INTRAPERITONEAL, Dose: 0, 75 MG/KG 1/WK FOR 6 WK TO ADULT ANIMALS (STUDY DURATION: LIFETIME), Tumor Site: Type of Lesion: ESOPHAGUS: PAPILLOMA, FORESTOMACH: PAPILLOMA, LUNG: ADENOMA, NASAL CAVITY: ADENOMA, ADENOCARCINOMA OR SQUAMOUS CARCINOMA, Tumor Site: Type of Lesion: ESOPHAGUS: PAPILLOMA, FORESTOMACH: PAPILLOMA, LUNG: ADENOMA, NASAL CAVITY: ADENOMA, ADENOCARCINOMA OR SQUAMOUS CARCINOMA) was “active; positive” and the carcinogen call (Species: HAMSTER, Strain/Sex: SYRIAN/MALE, Route: GAVAGE, Dose: 0, 5.6 MG/KG 1/WK FOR 23-30 WK (TOTAL DOSE: 0; 1.1 MMOL) (STUDY DURATION: LIFETIME), Dose: 0, 5.6 MG/KG 1/WK FOR 23-30 WK (TOTAL DOSE: 0; 1.1 MMOL) (STUDY DURATION: LIFETIME), Tumor Site: Type of Lesion: LIVER: HEPATOCELLULAR ADENOMA, HEMANGIOSARCOMA, LUNG: ALVEOLAR/BRONCHIAL ADENOMA, NASAL MUCOSA: CARCINOMA, FORESTOMACH:, Tumor Site: Type of Lesion: LIVER: HEPATOCELLULAR ADENOMA, HEMANGIOSARCOMA, LUNG: ALVEOLAR/BRONCHIAL ADENOMA, NASAL MUCOSA: CARCINOMA, FORESTOMACH:) was “active; positive”. For the same compound, the carcinogen call (Species: MOUSE, Strain/Sex: 101/N/MALE, FEMALE, Route: ORAL, Dose: 0, 0.0015% IN DRINKING WATER FOR 8 WK (STUDY DURATION: 24 WK), Tumor Site: Type of Lesion: ESOPHAGUS: TUMOR) was “active; positive”, the carcinogen call (Species: MOUSE, Strain/Sex: BXH-8/MALE, FEMALE, Route: ORAL, Dose: 0, 0.0015% IN DRINKING WATER FOR 8 WK (STUDY DURATION: 24 WK), Tumor Site: Type of Lesion: ESOPHAGUS: TUMOR) was “active; positive” and the carcinogen call (Species: MOUSE, Strain/Sex: C57BL/MALE,FEMALE, Route: ORAL, Dose: 0, 0.0015% IN DRINKING WATER FOR 8 WK (STUDY DURATION: 24 WK), Tumor Site: Type of Lesion: ESOPHAGUS:TUMOR) was “active; positive”. For the same compound, the carcinogen call (Species: MOUSE, Strain/Sex: STX/LE/MALE,FEMALE, Route: ORAL, Dose: 0, 0.0015% IN DRINKING WATER FOR 8 WK (STUDY DURATION: 24 WK), Tumor Site: Type of Lesion: ESOPHAGUS: TUMOR) was “active; positive”, the carcinogen call (Species: MOUSE, Strain/Sex: SWISS/MALE,FEMALE, Route: INTRAPERITONEAL, Dose: 0, 15 MG/KG 1/WK FOR 3 WK BEGINNING AT 38 DAYS OF AGE (STUDY DURATION: >79 WK), Tumor Site: Type of Lesion: ESOPHAGUS: PAPILLOMA, LUNG: ADENOMA) was “active; positive” and the carcinogen call (Species: MOUSE, Strain/Sex: SWISS/MALE,FEMALE, Route: INTRAPERITONEAL, Dose: 0, 15 MG/KG 1/WK FOR 3 WK TO ADULT ANIMALS (STUDY DURATION: LIFETIME), Tumor Site: Type of Lesion: ESOPHAGUS: PAPILLOMA, LUNG: ADENOMA) was “active; positive”. The carcinogen call (Species: RAT, Strain/Sex: WISTAR/MALE,FEMALE, Route: INTRAPERITONEAL, Dose: 0, 6, 12.5 MG/KG ONCE AT 1 AND 3 DAYS OF AGE, RESPECTIVELY (STUDY DURATION: >82 WK), Dose: 0, 6, 12.5 MG/KG ONCE AT 1 AND 3 DAYS OF AGE, RESPECTIVELY (STUDY DURATION: >82 WK)) was “inactive; negative”, the carcinogen call (Species: RAT, Strain/Sex: WISTAR/MALE,FEMALE, Route: INTRAPERITONEAL, Dose: 0, 6 MG/KG ONCE TO NEWBORN ANIMALS (STUDY DURATION: LIFETIME)) was “inactive; negative” and the carcinogen call (Species: RAT, Strain/Sex: WISTAR/MALE,FEMALE, Route: INTRAPERITONEAL, Dose: 0, 12.5 MG/KG ONCE TO 3 D-OLD ANIMALS (STUDY DURATION: LIFETIME)) was “inactive; negative”. For the same compound, the carcinogen call (Species: RAT, Strain/Sex: WISTAR/MALE,FEMALE, Route: INTRAPERITONEAL, Dose: 0, 50-70 MG/KG ONCE TO ADULT ANIMALS (STUDY DURATION: LIFETIME), Tumor Site: Type of Lesion: ESOPHAGUS: PAPILLOMA, CARCINOMA) was “active; positive” and the carcinogen call (Species: RAT, Strain/Sex: WISTAR/MALE,FEMALE, Route: INTRAPERITONEAL, Dose: 0, 50 MG/KG (7 FEMALE RATS), 60 MG/KG (2 FEMALE RATS), 70 MG/KG (10 MALE RATS) ONCE AT 42-50 DAYS OF AGE (STUDY DURATION, Dose: 0, 50 MG/KG (7 FEMALE RATS), 60 MG/KG (2 FEMALE RATS), 70 MG/KG (10 MALE RATS) ONCE AT 42-50 DAYS OF AGE (STUDY DURATION, Tumor Site: Type of Lesion: ESOPHAGUS: CARCINOMA) was “active; positive”.

For `c1ccc2c(c1)cc1ccc3c4ccccc4cc4ccc2c1c43`, the carcinogen call (Species: MOUSE, Route: DERMAL, Tumor Site: Type of Lesion: INTEGUMENTARY SYSTEM (SKIN)) was “active; positive” and the carcinogen call (Species: MOUSE, Route: SUBCUTANEOUS, Tumor Site: Type of Lesion: INJECTION SITE) was “active; positive”.

`CCC(=O)N(O)c1ccc(/C=C/c2ccccc2)cc1` was tested, and the carcinogen call (Species: RAT, Strain/Sex: STRAIN-CD/FEMALE, Route: INTRAPERITONEAL, Dose: 0, 10 UMOL/KG BW 2/WK FOR 6 WK (STUDY DURATION: 62 WK), Tumor Site: Type of Lesion: LIVER: NEOPLASTIC NODULE, MAMMARY GLAND: TUMOR, EAR DUCT: TUMOR, PITUITARY GLAND: CARCINOMA, Tumor Site: Type of Lesion: LIVER: NEOPLASTIC NODULE, MAMMARY GLAND: TUMOR, EAR DUCT: TUMOR, PITUITARY GLAND: CARCINOMA) was “active; positive” and the carcinogen call (Species: RAT, Strain/Sex: STRAIN-CD/MALE, Route: INTRAPERITONEAL, Dose: 0, 10 UMOL/KG BW 2/WK FOR 6 WK (STUDY DURATION: 62 WK), Tumor Site: Type of Lesion: TESTICLE: MESOTHELIOMA, PANCREAS(ACINUS): ADENOMA, PANCREAS(ISLET CELL): CARCINOMA, EAR DUCT: ADENOMA, CARCINOMA, LIVER:, Tumor Site: Type of Lesion: TESTICLE: MESOTHELIOMA, PANCREAS(ACINUS): ADENOMA, PANCREAS(ISLET CELL): CARCINOMA, EAR DUCT: ADENOMA, CARCINOMA, LIVER:) was “active; positive”.

With `c1ccc2c(c1)Oc1ccccc1O2` the carcinogen call (Species: MOUSE, Strain/Sex: B6C3F1/FEMALE, Route: ORAL, Dose: 0, 5000, 10000 PPM IN DIET, Dose: 0, 5000, 10000 PPM IN DIET) was “inactive; negative”, the carcinogen call (Species: MOUSE, Strain/Sex: B6C3F1/MALE, Route: ORAL, Dose: 0, 5000, 10000 PPM IN DIET, Dose: 0, 5000, 10000 PPM IN DIET) was “inactive; negative” and the carcinogen call (Species: RAT, Strain/Sex: OSBORNE-MENDEL/FEMALE, Route: ORAL, Dose: 0, 5000, 10000 PPM IN DIET, Dose: 0, 5000, 10000 PPM IN DIET) was “inactive; negative”. For the same compound, the carcinogen call (Species: RAT, Strain/Sex: OSBORNE-MENDEL/MALE, Route: ORAL, Dose: 0, 5000, 10000 PPM IN DIET, Dose: 0, 5000, 10000 PPM IN DIET) was “inactive; negative”.
